“Also recorded” adds a separate entry of the source.
Columns and labels:
[1] = tested on: BCMA+ MOLP-8-luciferase tumors; assay: MOLP-8-luciferase intravenous xenogenic tumor model, BLI (Example 14); type: in vivo, mouse; conditions: 4 mg/kg on days 0, 3 and 7
Procedure: To determine the in vivo efficacy of anti-BCMA×anti-CD3 bispecific antibodies (Abs), a xenogenic tumor study was performed. On day −11, immunodeficient NOD.Cg-Prkdc^scidIl2rg^tm1Wji/SzJ (NSG) mice were intraperitoneally injected with 4×10^6 human peripheral blood mononuclear cells (PBMC) from a normal, healthy donor. On day 0, the mice were intravenously administered 2×10^6 BCMA^+ MOLP-8 human multiple myeloma tumor cells that were engineered to also express firefly luciferase (MOLP-8-luciferase cells). […] The mice were administered these Abs twice more on days 3 and 7, for a total of three doses. Tumor growth was assessed over 48 days by measuring tumor bioluminescence (BLI) in anesthetized animals. As a positive control, a group of mice (n=5) was given only MOLP-8-luciferase cells, but not PBMC or antibody.
Implantation and measurement of xenogenic tumors: On day −11, immunodeficient NOD.Cg-Prkdc^scidIl2rg^tm1Wji/SzJ (NSG) mice were intraperitoneally injected with 5×10^6 human PBMC from a normal, healthy donor. […] Tumor growth was assessed over 48 days by measuring tumor BLI in anesthetized animals. […]
Measurement of xenogenic tumor growth: BLI imaging was used to measure tumor burden. […] Image acquisition was carried out with the field of view at D, subject height of 1.5 cm, and medium binning level with automatic exposure time determined by the Living Image Software. […]

[2] = tested on: B16/BCMA tumors; assay: Syngenic B16/BCMA tumor model in CD3-humanized mice (Example 16); type: in vivo, mouse; conditions: for Average Tumor Size (mm3) ± SEM on Day 5 / Average Tumor Size (mm3) ± SEM on Day 10 / Average Tumor Size (mm3) ± SEM on Day 14 / Average Tumor Size (mm3) ± SEM on Day 18: B16/BCMA Tumor
Procedure: To determine the in vivo efficacy of anti-BCMA×anti-CD3 bispecific antibodies (Abs), a syngenic tumor study was performed in mice expressing human CD3. C57BL/6 mice that express human CD3deg in place of murine CD3deg (CD3-humanized mice) were subcutaneously implanted with either 0.5×10^6 B16 melanoma cells that have been engineered to express full-length human BCMA (B16/BCMA cells) or 1×10^6 MC38 colon carcinoma cells that have been engineered to express full-length human BCMA (MC38/BCMA). […] The mice were administered these Abs twice more on days 4 and 7 for a total of three doses, and tumor growth was assessed throughout the experiment.
Implantation and measurement of syngenic tumors: C57BL/6 mice that express human CD3deg in place of murine CD3deg (CD3-humanized mice) were subcutaneously implanted with either 0.5×10^6 B16F10 melanoma cells that have been engineered to express full-length human BCMA (B16/BCMA cells) or 1×10^6 MC38 colon carcinoma cells that have been engineered to express full-length human BCMA (MC38/BCMA). […] The mice were administered these Abs twice more on days 4 and 7 for a total of three doses, and tumor growth was assessed throughout the experiment.
Calculation of syngenic tumor growth and inhibition: In order to determine tumor volume by external caliper, the greatest longitudinal diameter (length in mm) and the greatest transverse diameter (width in mm) were determined. Tumor volumes based on caliper measurements were calculated by the formula: Volume (mm^3)=(length×width^2)/2.

[3] = molecular target: T1, human BCMA-MMH (Homo sapiens, UniProt Q02223); assay: SPR (Biacore 4000) binding kinetics to human BCMA-MMH; conditions: 25° C.
T1 construct: (human BCMA-MMH); myc-myc-hexahistidine (C); made in house
Procedure: The CM5 Biacore sensor surface was derivatized by amine coupling with a monoclonal mouse anti-human Fc antibody (GE, #BR-11008-39) to capture purified anti-BCMA mAbs and anti-BCMA×anti-CD3 bispecific mAbs. All Biacore binding studies were performed in a buffer composed of 0.01 M HEPES pH 7.4, 0.15M NaCl, 3 mM EDTA, 0.05% v/v Surfactant P20 (HBS-ET running buffer). […] Antigen samples were then injected over the anti-BCMA and anti-BCMA×anti-CD3 bispecific mAbs captured surfaces at a flow rate of 30 μL/minute. Antibody-reagent association was monitored for 5 minutes while dissociation in HBS-ET running buffer was monitored for 10 minutes. All of the binding kinetics experiments were performed at 25° C. Kinetic association (ka) and dissociation (kd) rate constants were determined by fitting the real-time sensorgrams to a 1:1 binding model using Scrubber 2.0c curve fitting software. Binding dissociation equilibrium constants (KD) and dissociative half-lives (t½) were calculated from the kinetic rate constants as: […]

[4] = molecular target: T2, primary cynomolgus CD8+ T cells (Macaca fascicularis, UniProt Q95LI5+Q95LI8); assay: FACS binding to primary cynomolgus CD8+ T cells; conditions: median EC50, FACS binding
T2 construct: endogenous in cells; host or cells: primary cynomolgus CD8+ T cells (gated CD8+/CD16-)
Procedure: Flow cytometric analysis was utilized to determine binding of BCMA×CD3 bispecific antibodies to human and cynomolgus CD3 (Jurkat cells, mfCD3 engineered Jurkat cells, primary human CD8+ and cynomolgus CD8+ T cells). Briefly, 1e05 cells/well were incubated in the presence of FACS wash with block (PBS+1% filtered FBS+5% mouse serum) with a serial dilution of BCMA×CD3 and control antibodies for 30 minutes on ice. After incubation, the cells were washed twice with cold FACS wash (PBS+1% filtered FBS) and bound antibody was detected by incubating with Alexa647-conjugated anti-human secondary antibody on ice for an additional 30 minutes. Wells containing no antibody or secondary only were used as a control. For the detection of monkey and human T cells, a cocktail of human and cynomolgus cross-reactive antibodies to CD4, CD8 and CD16 was added to the anti-human secondary. After incubation, cells were washed, re-suspended in 200 μL cold PBS containing 1% filtered FBS and analyzed by flow cytometry on a BD FACS Canto II. Cells were gated by FSC-H by FSC-A to select singlet events, followed by side and forward scatters to select for live events. For monkey T cells, additional gating on CD8+/CD16− cells was performed.
EC50 values for FACS binding were calculated using 4-parameter non-linear regression analysis in Prism software.

T1 sequence (Q02223 with tags, fused parts or gaps): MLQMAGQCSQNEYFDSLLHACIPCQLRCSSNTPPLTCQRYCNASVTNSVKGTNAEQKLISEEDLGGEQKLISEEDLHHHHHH
T2 sequence (Q95LI5 22-198): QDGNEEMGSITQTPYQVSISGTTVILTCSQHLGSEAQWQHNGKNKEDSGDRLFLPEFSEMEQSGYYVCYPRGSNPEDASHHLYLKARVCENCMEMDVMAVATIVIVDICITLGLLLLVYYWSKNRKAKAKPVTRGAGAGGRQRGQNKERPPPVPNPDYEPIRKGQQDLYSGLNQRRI
T2 sequence (Q95LI8 22-171): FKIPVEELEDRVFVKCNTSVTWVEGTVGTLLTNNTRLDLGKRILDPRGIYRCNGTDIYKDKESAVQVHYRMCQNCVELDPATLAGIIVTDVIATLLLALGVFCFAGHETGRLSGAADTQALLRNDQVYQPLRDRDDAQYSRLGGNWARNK
T2 sequence (Q95LI7 23-181 partner): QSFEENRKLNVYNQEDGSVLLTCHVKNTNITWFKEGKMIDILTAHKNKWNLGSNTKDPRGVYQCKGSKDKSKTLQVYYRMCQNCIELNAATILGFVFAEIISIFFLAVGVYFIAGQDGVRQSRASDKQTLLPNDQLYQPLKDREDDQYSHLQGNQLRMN

Substance	tumor growth (in words) [1]	Average Tumor Size (mm3) ± SEM on Day 5 ([2]; 0.04 mg/kg) [mm3]	Average Tumor Size (mm3) ± SEM on Day 10 ([2]; 0.04 mg/kg) [mm3]	Average Tumor Size (mm3) ± SEM on Day 14 ([2]; 0.04 mg/kg) [mm3]	Average Tumor Size (mm3) ± SEM on Day 18 ([2]; 0.04 mg/kg) [mm3]	Average Tumor Size (mm3) ± SEM on Day 5 ([2]; 0.4 mg/kg) [mm3]	Average Tumor Size (mm3) ± SEM on Day 10 ([2]; 0.4 mg/kg) [mm3]	Average Tumor Size (mm3) ± SEM on Day 14 ([2]; 0.4 mg/kg) [mm3]	Average Tumor Size (mm3) ± SEM on Day 18 ([2]; 0.4 mg/kg) [mm3]	tumor growth (in words) ([2]; B16/BCMA, 0.4 or 0.04 mg/kg, three doses)	ka [3] [M⁻¹ s⁻¹]	kd [3] [s⁻¹]	Mf (Cyno) CD8+ T cells EC50 [M] [4]
REGN5458: anti-BCMA×anti-CD3 bispecific antibody: BCMA HCVR of mAb21581 (SEQ 66), CD3 HCVR of mAb7221G (SEQ 90), common LCVR SEQ 82	delayed the growth	3.3 ± 2.2	15.4 ± 12.5	81.4 ± 49.2	127.2 ± 63.9	0.0 ± 0.0	0.0 ± 0.0	8.1 ± 4.4	47.1 ± 17.0	suppress the growth of both tumor lines in a dose-dependent manner			
REGN5459: anti-BCMA×anti-CD3 bispecific antibody: BCMA HCVR of mAb21581 (SEQ 66), CD3 HCVR of mAb7221G20 (SEQ 98), common LCVR SEQ 82											730000	0.00101	did not bind; also recorded: No binding
